The text below walks through data of patent US20260374773A1, “MULTI-CYCLIC IRAK AND FLT3 INHIBITING COMPOUNDS AND USES THEREOF” (CHILDREN'S HOSPITAL MEDICAL CENTER, priority 2022, published 2026).

Each structure is given as a SMILES string.

The subject of one experiment is MOLM14 (D835Y) cells. In words: Combination drug screening with venetoclax, Cell Titer Glo, MOLM14 (D835Y). It is filed as cell-based. On the set-up: key: relative excess HSA score; more negative = greater synergy. To be noted: compound 0-0.1 μM, venetoclax 0-2 μM, 10 × 10, 48 h, negative = synergy. As for the experimental part:
Combination drug therapy has the potential to produce enhanced effects with lower side effects not obtained using either agent alone, or beyond the additive effect of the different concentrations of the two different agents. To determine whether enhanced effects are observed in different drug combinations, combination drug screening was performed as previously described (Mathews-Griner, L. A. et al., Proc. Nat. Acad. Sci., 2014, 111:2349-2354; Lin, G. L. et al., Sci. Trans. Med., 2019, 11: eaaw0064). Briefly, 10 nL of compounds were acoustically dispensed into 1536-well white polystyrene tissue culture-treated plates with an Echo 550 acoustic liquid handler (Labcyte). Cells were then added to compound-containing plates at a density of 500-cells/well in 5 μL of medium. A 10-point custom concentration range was used for all listed drugs in a 10×10 matrix. Plates were incubated for 48 hours at standard incubator conditions covered by a stainless steel gasketed lid to prevent evaporation. 48 hours post compound addition, 3 μL of Cell Titer Glo (Promega) were added to each well and plates were incubated at room temperature for 15 minutes with the stainless-steel lid in place. Luminescence readings were taken using a Viewlux imager (PerkinElmer) with a 2 second exposure time per plate.
Each compound was studied in combination with venetoclax at two concentration ranges of compound and venetoclax, respectively (for a total of 4 combination dose-response curves). The dose combinations that yielded the optimal synergy score, measured as excess HSA, which are reported in Tables 23 and 24 for the FLT3 mutant cell line MOLM14 (D835Y) and the FLT3 WT cell line THP1, respectively.
Table 23 provides combination outcomes for representative compounds with venetoclax in the Cell Titer Glo assay in MOLM14 (D835Y) cells (a FLT3 mutant cell line) at 48 hours. The table provides relative excess HSA values for compounds of the disclosure used in combination with venetoclax compared to gilteritinib hemifumarate used in combination with venetoclax. A negative excess HSA score illustrates that the drug combination is better than either drug alone, wherein greater synergy is observed at larger negative values of the excess HSA score.
Excess HSA is a measure of synergy vs. additivity or antagonism, wherein a negative excess HSA value is indicative of synergy. More information on excess HSA scores can be found in Vlot, Anna H. C. et al., Drug Discovery Today, 2019, 24(12):2286-2298. […] However, different methodologies may yield different numerical scores, and different definitions of what constitutes a deviation from mere additivity vs true drug synergy. The large negative excess HSA values provided in Tables 23 and 24 illustrate that multiple members of this structural class synergize with venetoclax. The degree to which combination therapy has to potential to produce enhanced effects with lower side effects not obtained using either agent alone, or beyond the additive effect of the different concentrations of the two different agents depends on the nature of the drugs used in the combination, and the specific doses/concentrations at which they are ultimately used in the therapeutic regimen. A negative excess HSA score illustrates that the drug combination is better than either drug alone (at the concentrations being studied). […] However, the utility in certain drug combinations vs. others should not be distinguished based on cutoffs between excess HSA scores, because the score itself is only a relative indicator that is completely dependent on experimental design and is not an absolute number. Furthermore, the concept of what constitutes clinically meaningful drug synergy is something that is still being debated, not only between pharmacologists and physicians, but amongst pharmacologists themselves. […]
In general terms: Cellular ATP, detected with luciferase, serves as a proxy for viable cell number.
As to `COc1cn2ncc(-c3nc(N[C@H]4CNC[C@@H]4F)c(F)cc3F)c2nc1C1CC1` [Compound 24, 6-(5-cyclopropyl-6-methoxypyrazolo[1,5-a]pyrimidin-3-yl)-3,5-difluoro-N-((3S,4S)-4-fluoropyrrolidin-3-yl)pyridin-2-amine], the “Excess HSA” value is listed as −1472.

The experiment is the same for the next values; noted with them: compound 0-0.1 μM, venetoclax 0-20 μM, 10 × 10, 48 h, negative = synergy.
With `COc1cn2ncc(-c3nc(N[C@@H]4CCCNC4)ccc3F)c2nc1C1CC1` [Compound 2, (R)-6-(5-cyclopropyl-6-methoxypyrazolo[1,5-a]pyrimidin-3-yl)-5-fluoro-N-(piperidin-3-yl)pyridin-2-amine], the “Excess HSA” value is −1843.

With `COc1cn2ncc(-c3nc(N[C@@H]4CCCNC4)ncc3F)c2nc1C1CC1` [Compound 14a, (R)-4-(5-cyclopropyl-6-methoxypyrazolo[1,5-a]pyrimidin-3-yl)-5-fluoro-N-(piperidin-3-yl)pyrimidin-2-amine], the “Excess HSA” value is listed as −559.2. Take `COc1cn2ncc(-c3nc(N[C@H]4CNCC[C@@H]4F)ncc3F)c2nc1C(C)(C)O` [Compound 6a, 2-(3-(5-fluoro-2-(((3S,4S)-4-fluoropiperidin-3-yl)amino)pyrimidin-4-yl)-6-methoxypyrazolo[1,5-a]pyrimidin-5-yl)propan-2-ol]: the “Excess HSA” value is given as −1057. Consider `COc1cn2ncc(-c3nc(N[C@H]4CNCC[C@@H]4F)ncc3F)c2nc1C1CC1` [Compound 15a, 4-(5-cyclopropyl-6-methoxypyrazolo[1,5-a]pyrimidin-3-yl)-5-fluoro-N-((3S,4S)-4-fluoropiperidin-3-yl)pyrimidin-2-amine], for which the “Excess HSA” value was −831.

Take `COc1cn2ncc(-c3nc(N[C@H]4CNCC[C@@H]4F)c(F)cc3F)c2nc1C1CC1` [Compound 22, 6-(5-cyclopropyl-6-methoxypyrazolo[1,5-a]pyrimidin-3-yl)-3,5-difluoro-N-((3S,4S)-4-fluoropiperidin-3-yl)pyridin-2-amine]: the “Excess HSA” value was −992.2. Consider `COc1cn2ncc(-c3cncc(N[C@H]4CNCC[C@@H]4F)n3)c2nc1C1CC1` [Compound 12a, 6-(5-cyclopropyl-6-methoxypyrazolo[1,5-a]pyrimidin-3-yl)-N-((3S,4S)-4-fluoropiperidin-3-yl)pyrazin-2-amine], for which the “Excess HSA” value was −1697.

With `COc1cn2ncc(-c3ccnc(N[C@H]4CNCC[C@@H]4F)n3)c2nc1C1CC1` [Compound 7a, 4-(5-cyclopropyl-6-methoxypyrazolo[1,5-a]pyrimidin-3-yl)-N-((3S,4S)-4-fluoropiperidin-3-yl)pyrimidin-2-amine], the “Excess HSA” value is −1364.

The experiment is the same for the next values; noted with them: compound 0-0.2 μM, venetoclax 0-20 μM, 10 × 10, 48 h, negative = synergy.
With `COc1cn2ncc(-c3ccnc(N[C@H]4CNCC[C@@H]4F)n3)c2nc1C(C)(C)O` [Compound 3a, 2-(3-(2-(((3S,4S)-4-fluoropiperidin-3-yl)amino)pyrimidin-4-yl)-6-methoxypyrazolo[1,5-a]pyrimidin-5-yl)propan-2-ol], the “Excess HSA” value is on record as −1621.
